Source: US20070275382A1, “Biomarkers for the Efficacy of Somatostatin Analogue Treatment” (priority 2003, published 2007)
*1 amine or outer side, *2 acyl side, *3 side chain or, on linkers, in order; H or OH if unused. Where a SMILES comes first, the peptide text is derived from it. Side-chain parts run from the residue outwards. [ ]: non-standard residue; d: D form. The star is where a group is joined. Ethylenediamine = C(CN[*:2])N[*:1]; Hyp = O=C(O)[CH]1C[CH](O)CN1; Phg = N[CH](C(=O)O)c1ccccc1; CO = O=C([*:1])[*:2]; Bn = c1ccc(C*)cc1

Test system: Liver left lateral lobe
Test: Microarray gene expression profiling (HG-U95A), liver
Type: in vivo, cynomolgus monkeys
Experimental: Origin of tissue and processing. Male and female cynomolgus monkeys received subcutaneously pasireotide (100 μg/animal/day) or the vehicle for 14 days. On day 15, all animals were sacrificed and tissues for RNA extraction were immediately snap-frozen and kept at −80° C. until processing.
RNA expression profiling was conducted by means of the HG-U95A gene expression probe array (Affymetrix; Santa Clara, Calif. USA), containing more than 12,600 probe sets interrogating primarily full-length human genes and also some control probe sets. The experiment was conducted according to the recommendations of the manufacturer. Briefly, total RNA was obtained by acid guanidinium thiocyanate-phenol-chloroform extraction (Trizol®, Invitrogen Life Technologies, San Diego, Calif. USA) from each frozen tissue section. The total RNA was then purified on an affinity resin (Rneasy®, Qiagen) and quantified. Double stranded cDNA was synthesized with a starting amount of approximately 5 μg full-length total RNA using the Superscript® Choice System (Invitrogen Life Technologies, Carlsbad, Calif. USA) in the presence of a T7-(dT)24 DNA oligonucleotide primer. Following synthesis, the cDNA was purified by phenol/chloroform/isoamyl alcohol extraction and ethanol precipitation. The purified cDNA was then transcribed in vitro using the BioArray® High Yield RNA Transcript Labeling Kit (ENZO, Farmingdale, N.Y. USA) in the presence of biotinylated ribonucleotides form biotin labelled cRNA. The labelled cRNA was then purified on an affinity resin (Rneasy®, Qiagen), quantified and fragmented. An amount of approximately 10 μg labelled cRNA was hybridized for 16 hours at 45° C. to an expression probe array. The array was then washed and stained twice with streptavidin-phycoerythrin (Molecular Probes,) using the GeneChip® Fluidics Workstation 400 (Affymetrix, Santa Clara, Calif. USA). The array was then scanned twice using a confocal laser scanner (GeneArray® Scanner, Agilent, Palo Alto, Calif. USA) resulting in one scanned image. This resulting “.dat-file” was processed using the MAS4 program (Affymetrix) into a “.cel-file”. The “.cel file” was captured and loaded into the Affymetrix GeneChip® Laboratory Information Management System (LIMS). The LIMS database is connected to a UNIX Sun Solaris server through a network filing system that allows for the average intensities for all probes cells (CEL file) to be downloaded into an Oracle database (NPGN). Raw data was converted to expression levels using a “target intensity” of 150. The data were evaluated for quality control and loaded in the GeneSpring® software 4.2.4 (Silicon Genetics, Calif. USA) for analysis.
On the human Affymetrix HGU95Av2 chip, probe sets for individual genes contain 20 oligonucleotide pairs, each composed of a “perfect match” 25-mer and a “mismatch” 25-mer differing from the “perfect” match oligonucleotide at a single base. After probe labelling, hybridization, and laser scanning, the expression level was estimated by averaging the differences in signal intensity measured by oligonucleotide pairs of a given probe (AvgDiff value). The fold changes and directions were calculated for selected genes, from the differences of the AvgDiff values between controls and treated.
To identify genes that were impacted by pasireotide, the dataset was initially filtered to exclude in a first wave of analysis, genes whose values were systematically in the lower expression ranges where the experimental noise is high (at least 80 in a number of experiments corresponding to the smallest number of replicas of any experimental point). In a second round of selection a threshold p-value of 0.05 (based on a t-test) identified differences between treated and control based on a two component error model (Global Error Model) and, whenever possible, with a stepdown correction for multi-hypothesis testing (Benjamini and Hochberg false discovery rate). […]

[1] = ↑ increase, treated vs controls
[2] = ↓ decrease, treated vs controls

SMILES: NCCCCC1NC(=O)C(Cc2c[nH]c3ccccc23)NC(=O)C(c2ccccc2)NC(=O)C2CC(OC(=O)NCCN)CN2C(=O)C(Cc2ccccc2)NC(=O)C(Cc2ccc(OCc3ccccc3)cc2)NC1=O (stereo not drawn) [Pasireotide, cyclo[4-(NH2—C2H4—NH—CO—O)Pro-Phg-DTrp-Lys-Tyr(4-Bzl)-Phe]] (cyclo(F[Hyp]([CO-Ethylenediamine])[Phg]WKY(Bn)); configuration not given here)
- GR expression level, AvgDiff (range) (0.1 mg/animal/14day): 80 (70 to 360)
- IGF-2 expression level, AvgDiff (range) (0.1 mg/animal/14day): 269 (224 to 291)
- IGFBP2 expression level, AvgDiff (range) (0.1 mg/animal/14day): 4,476 (3,191 to 5,422)
- Insulin promoter factor 1, homeodomain transcription factor expression level, AvgDiff (range) (0.1 mg/animal/14day): 42 (23 to 52)
- 5-hydroxytryptamine (serotonin) receptor 6 RNA expression fold change [1]: receptor 6 ↑ x2.5
- Adenylyl cyclase-associated protein RNA expression fold change [1]: ↑ x1.5
- Arginine vasopressin receptor 2 RNA expression fold change [1]: receptor 2 ↑ x2.5
- B lymphoid tyrosine kinase RNA expression fold change [1]: ↑ x3.5
- Bone-derived GF RNA expression fold change [1]: ↑ x3
- Bruton agamma globulinaemia tyrosine kinase RNA expression fold change [1]: ↑ x1.5
- Butyrate response factor 2 (EGF-response factor 2) RNA expression fold change [1]: factor 2) ↑ x2
- Calcium/calmodulin-dependent protein kinase kinase 2, β RNA expression fold change [1]: ↑ x3
- Calmodulin 2 (phosphorylase kinase, δ) RNA expression fold change [1]: kinase, δ) ↑ x2
- Cdk 5, regulatory subunit 1 RNA expression fold change [1]: subunit 1 ↑ x2.5
- Cdki1A (p21/Cip1) RNA expression fold change [1]: (p21/Cip1) ↑ x6
- Corticosteroid binding globulin precursor RNA expression fold change [1]: precursor ↑ x2
- DAG kinase, α (80 kD) RNA expression fold change [1]: (80 kD) ↑ x3
- DAG kinase, δ (130 kD) RNA expression fold change [1]: ↑ x1.5
- Dopamine receptor D2 RNA expression fold change [1]: receptor D2 ↑ x3.5
- Dopamine receptor D3 RNA expression fold change [1]: receptor D3 ↑ x2
- EGFR (avian erythroblastic leukaemia viral (v-erb-b) oncogene homolog) RNA expression fold change [1]: homolog) ↑ x2
- FGFR2 (bacteria-expressed kinase, keratinocyte growth factor receptor, craniofacial dysplasia) RNA expression fold change [1]: dysplasia) ↑ x2
- Fas-activated serine/threonine kinase RNA expression fold change [1]: kinase ↑ x1.5
- GABA (A) receptor, γ2 precursor RNA expression fold change [1]: precursor ↑ x4
- GABA(A) receptor-associated protein RNA expression fold change [1]: ↑ x1.5
- GCSF RNA expression fold change [1]: GCSF ↑ x3.5
- Glucacon receptor RNA expression fold change [1]: receptor ↑ x5
- Glutamate receptor, metabotropic 4 RNA expression fold change [1]: ↑ x1.5
- Growth differentiation factor 1 RNA expression fold change [1]: factor 1 ↑ x3
- IFN regulatory factor 5 RNA expression fold change [1]: factor 5 ↑ x2.5
- IFN-induced leucine zipper protein RNA expression fold change [1]: ↑ x1.5
- IFN-inducible RNA-dependent protein kinase RNA expression fold change [1]: kinase ↑ x4
- IFNγ responsive transcript RNA expression fold change [1]: transcript ↑ x1.5
- IGFBP2 RNA expression fold change [1]: IGFBP2 ↑ x2
- IL2 R, γ chain, precursor RNA expression fold change [1]: precursor ↑ x2.5
- IP 5-phosphatase RNA expression fold change [1]: phosphatase ↑ x2
- Natriuretic peptide receptor A/guanylate cyclase A (atrionatriuretic peptide receptor A) RNA expression fold change [1]: A) ↑ x6
- Nck, Ash and PLC γ binding protein NAP4 RNA expression fold change [1]: ↑ x3.5
- PDGF, α polypeptide RNA expression fold change [1]: polypeptide ↑ x1.5
- PDGFR, α polypeptide RNA expression fold change [1]: polypeptide ↑ x2
- PI transfer protein RNA expression fold change [1]: protein ↑ x3.5
- PKC substrate 80K-H RNA expression fold change [1]: 80K-H ↑ x1.5
- PLA2, group IIA (platelets, synovial fluid) RNA expression fold change [1]: fluid) ↑ x5.5
- PLC, γ 1 (formerly subtype 148) RNA expression fold change [1]: 148) ↑ x2
- Rb binding protein RNA expression fold change [1]: protein ↑ x2.5
- Rb-like 2 (p130) RNA expression fold change [1]: (p130)↑ x3
- Receptor (calcitonin) activity modifying protein 1 precursor RNA expression fold change [1]: 1 precursor ↑ x1.5
- Solute carrier family 9 (sodium/hydrogen exchanger), isoform 3 regulatory factor 1 RNA expression fold change [1]: ↑ x11.5
- Solute carrier family 11 (Na+/phosphate symporters), member 1 RNA expression fold change [1]: member 1 ↑ x2.5
- TGFβ activated kinase-binding protein 1 RNA expression fold change [1]: protein 1 ↑ x2.5
- THR interacting protein 15 RNA expression fold change [1]: protein 15 ↑ x1.5
- THR sulfo transferase RNA expression fold change [1]: transferase ↑ x2.5
- TNF (ligand) superfamily, member 10 RNA expression fold change [1]: 10 ↑ x1.5
- δ sleep inducing peptide, immunoreactor RNA expression fold change [1]: ↑ x2.5
- 1-PI-4-phosphate 5-kinase isoform C RNA expression fold change [2]: ↓ x2
- ATPase, H+/K+ exchanging, beta polypeptide RNA expression fold change [2]: polypeptide ↓ x2
- BCL2-like 1 RNA expression fold change [2]: ↓ x3.5
- Ca++ channel, voltage-dependent, P/Q type, alpha 1A subunit RNA expression fold change [2]: subunit ↓ x2.5
- Cdk like-2 RNA expression fold change [2]: Cdk like-2 ↓ x2
- Cdki 2D (p19, inhibits CDK4) RNA expression fold change [2]: ↓ x2.5
- Death-associated protein 6 RNA expression fold change [2]: ↓ x2.5
- EGF (β-urogastrone) RNA expression fold change [2]: ↓ x2.5
- EGF-like repeats and discoidin I-like domains 3 RNA expression fold change [2]: domains 3 ↓ x1.5
- Fms-related tyrosine kinase 1(VEGF/vascular permeability factor receptor) RNA expression fold change [2]: receptor) ↓ x1.5
- GFR-bound protein 2 RNA expression fold change [2]: protein 2 ↓ x2.5
- Glycosylphosphatidylinositol specific phospholipase D1 RNA expression fold change [2]: ↓ x1.5
- IFN-related developmental regulator 2 RNA expression fold change [2]: regulator 2 ↓ x1.5
- IFN-stimulated protein, 15 kDa RNA expression fold change [2]: protein, 15 kDa ↓ x2
- IGF-2 RNA expression fold change [2]: IGF-2 ↓ x2.5
- Insulin promoter factor 1, homeodomain transcription factor RNA expression fold change [2]: ↓ x1.5
- PI transfer protein, β RNA expression fold change [2]: protein, β ↓ x1.5
- PKC, ι RNA expression fold change [2]: PKC, ι ↓ x1.5
- Rb 1 (including osteosarcoma) RNA expression fold change [2]: ↓ x2
- TGF, β1 RNA expression fold change [2]: TGF, β1 ↓ x1.5
- TGFβR III (betaglycan, 300 kδ) RNA expression fold change [2]: 300 kδ) ↓ x2
- TNF-α converting enzyme RNA expression fold change [2]: enzyme ↓ x2
